Laboratory results from a melting point compilation (Tetko et al.).

Row | SMILES | melting point
1 | O=C(O)c1cc([N+](=O)[O-])c(F)cc1Cl | 151 to 153 °C
2 | NC1CCc2[nH]ncc2C1 (configuration not stated) | 168 to 170 °C
3 | Fc1cc2nc(CCl)[nH]c2cc1F | 150 to 152 °C
4 | Cc1nn(C)c2ncc(CCl)cc12 | 171 to 173 °C
5 | CC(C)C1(C)CC(=O)NC1=O (configuration not stated) | 78 to 80 °C
6 | COc1cc(OC)c(S(N)(=O)=O)cc1Br | 257 to 259 °C
7 | CSc1ccsc1C(=O)O | 194 to 196 °C
8 | CC1=CC(=O)N(C2CCCCC2)C1=O | 99 to 101 °C
9 | FC(F)(F)c1ccc2sc(S)nc2c1 | 221 to 223 °C
10 | O=c1[nH]c(CCl)nc2cc(C(F)(F)F)ccc12 | 209 to 211 °C
11 | Cn1cc(S(=O)(=O)Cl)cc1C(N)=O | 132 to 134 °C
12 | CC1CC1C(=O)NCCC(=O)O (configuration not stated) | 94 to 96 °C
13 | O=C(O)C1CCCN1C(=O)Cc1cccs1 (configuration not stated) | 139 to 141 °C
14 | CN(C)C(=O)c1ccc(Cl)c(N)c1 | 76 to 78 °C
15 | Cc1nc(N)c(Cl)cc1Cl | 136 to 138 °C
16 | COC(=O)C(C(=O)OC)c1ccc(C(F)(F)F)cc1[N+](=O)[O-] | 63 to 65 °C
17 | Cc1cc(F)c2nc(O)cc(C(=O)O)c2c1 | 337 to 339 °C
18 | Cc1ccc(C(O)CN)cc1 (configuration not stated) | 70 to 72 °C
19 | Brc1cnn(-c2nccs2)c1 | 78 to 80 °C
20 | CC(N)(C(N)=O)c1cccc(Cl)c1 (configuration not stated) | 103 to 105 °C
21 | NC(=O)Cn1ccc([N+](=O)[O-])n1 | 159 to 161 °C
22 | Cc1cc(N)c2c(n1)CCCC2 | 121 to 123 °C
23 | CN1CCN(C(=O)CO)CC1 | 56 to 58 °C

Row | SMILES | melting point
24 | COC(=O)c1ccc(Cl)c(S(=O)(=O)Cl)c1 | 103 to 105 °C
25 | Cc1c(C(=O)O)cc(Br)cc1S(N)(=O)=O | 213 to 215 °C
26 | CN(CC(=O)Nc1ccc(Cl)c(C(F)(F)F)c1)C(=O)CCl | 164 to 165 °C
27 | O=C(O)c1cc(Br)c(Cl)[nH]1 | 179 to 181 °C
28 | Cc1cc2ncn(C(C)C(N)=S)c2cc1C (configuration not stated) | 204 to 206 °C
29 | Cc1cc(C)c2c(N)c(C(=O)O)sc2n1 | 145 to 147 °C
30 | CC(C)(C)OC(=O)NC(CN)CN | 58 to 60 °C
31 | COC(=O)c1cc(N)cc([N+](=O)[O-])c1 | 159 to 161 °C
32 | CC(C)Cn1c(S)nnc1N1CCOCC1 | < 17 °C
33 | O=C(CBr)c1ccc(Cl)s1 | 113 to 115 °C
34 | NNc1ccc(S(=O)(=O)N2CCCCC2)cn1 | 186 to 188 °C
35 | O=C(CC1CCCCC1)Nc1cccc2c1NCCC2 | 179 to 181 °C
36 | Cc1ccc2cc(CCl)c(Cl)nc2c1C | 109 to 111 °C
37 | Cc1c(C(=O)O)c(=O)oc2ccc(Br)cc12 | 179 to 181 °C
38 | Cc1cc2ncc(SC(=O)N(C)C)cn2n1 | 144 to 146 °C
39 | NC(=O)N1CCC(O)CC1 | 147 to 149 °C
40 | CN(CC(N)=O)C1CCCC1 | 78 to 80 °C
41 | CN1C(=O)CC(C(=O)O)C1c1cccs1 (configuration not stated) | 139 to 141 °C
42 | Cc1cc(N)n(C2CC3CCC2C3)n1 (configuration not stated) | 59 to 61 °C
43 | OCc1cc(I)c(CO)cc1I | 218 to 220 °C
44 | CC(=O)N1CCC(NC(=O)OCC(F)(F)F)CC1 | 115 to 124 °C
45 | O=[N+]([O-])c1c[nH]ccc1=NCC1CCCO1 (configuration not stated) | 72 to 74 °C

Second part, the compound after the results:

Row | melting point | SMILES
46 | 207 to 209 °C | Cc1ccc(NS(=O)(=O)c2ccc(Cl)c(C(=O)O)c2)cc1C
47 | 188 to 190 °C | O=C(O)c1nccnc1-c1nc2ccccc2s1
48 | 137 to 139 °C | Cc1ccc(S(=O)(=O)N(C)c2ccc(O)cc2)cc1
49 | 101 to 103 °C | CCc1ccccc1-n1cc(O)c(C(=O)O)n1
50 | 156 to 158 °C | Nc1ncn(Cc2ccncc2)n1
51 | 76 to 80 °C | COc1ccc(-c2noc(CCl)n2)c(OC)c1
52 | 204 to 206 °C | Cc1ccc(S(=O)(=O)Oc2ncnc3c(F)cc(Br)cc23)cc1
53 | 128 to 130 °C | N#CCc1cc2ccccc2nc1Cl
54 | 205 to 207 °C | CC1(C(=O)O)CCCN1C(=O)c1ccccc1 (configuration not stated)
55 | 211 to 213 °C | N=C(N)NS(=O)(=O)c1ccccc1
56 | 204 to 206 °C | NC(=O)NC1CCCc2ccccc21 (configuration not stated)
57 | 117 to 119 °C | CC(C)Oc1ccc(C(=O)NN)cc1
58 | 241 to 243 °C | O=c1ccc2ccc(Cl)c(Cl)c2[nH]1
59 | 242 to 244 °C | O=c1c2c(-c3ccco3)csc2nc(S)n1-c1ccccc1
60 | 46 to 48 °C | OC1CC(c2ccccc2F)C1 (configuration not stated)
61 | 171 to 173 °C | O=C(CCCl)Nc1ccc([N+](=O)[O-])cc1
62 | 108 to 110 °C | N#CCc1ccc(OCc2ccccc2N)cc1
63 | 160 to 162 °C | Nc1ccc2nc(CN3CCOCC3)[nH]c2c1
64 | 191 to 193 °C | CC(C)c1ccc(S(=O)(=O)c2ccc(NN)cc2)cc1

Row | melting point | SMILES
65 | 229 to 231 °C | NNC(=O)c1c[nH]c2ccccc12
66 | 187 to 189 °C | O=C(O)c1cnc(-c2ccccc2)s1
67 | 149 to 151 °C | CCCOc1ccc(C=CC(=O)O)cc1OCC
68 | 173 to 175 °C | Cc1ccc(N2C(=O)Cc3ccccc3C2=O)cc1
69 | 203 to 205 °C | CC(C)CCNc1c(N)n(Cc2ccccc2)c(=O)[nH]c1=O
70 | 107 to 109 °C | NS(=O)(=O)NCc1ccccc1
71 | 184 to 186 °C | Cc1cc2ccccc2n1CC(=O)O
72 | 185 to 187 °C | O=C(O)Cc1coc(-c2cccs2)n1
73 | 107 to 109 °C | CS(=O)(=O)c1ccccc1Br
74 | 129 to 131 °C | O=C(Nc1ccccc1C(=O)O)OCc1ccccc1
75 | 93 to 95 °C | CC(=CC(=O)O)c1ccccc1
76 | 278 to 280 °C | O=C(O)c1ccc(OCc2ccncc2)cc1
77 | 105 to 107 °C | O=C(Cc1ccc(Cl)cc1)N1CCNCC1
78 | 74 to 76 °C | O=S(=O)(Cl)c1ccccc1-c1ccno1
79 | 83 to 85 °C | CN1CCC(Nc2cccc3ccccc23)CC1
80 | 83 to 85 °C | CC(C)n1[nH]c(-c2ccccc2)cc1=N
81 | 42 to 44 °C | O=C(c1ccccc1)c1ccc(F)cn1
82 | 50 to 52 °C | CC(Sc1ccccc1Cl)C(=O)O (configuration not stated)
83 | 246 to 248 °C | O=C(O)c1cnn(-c2ccc(Cl)cc2Cl)c1

Row | melting point | SMILES
84 | 81 to 83 °C | CCN(CC)C(=O)c1cccc(N)c1
85 | 138 to 140 °C | COC(=O)N(C)c1ccccc1C(=O)O
86 | 108 to 110 °C | O=C(CCl)NC(c1ccccc1)c1nccs1 (configuration not stated)
87 | 116 to 118 °C | O=C1C=CC(=O)N1c1cnccn1
88 | 138 to 140 °C | COc1ccc(Sc2nsc(N)n2)cc1
89 | 182 to 184 °C | Oc1ccc(-c2nc3cc(C(F)(F)F)ccc3s2)cc1
90 | 152 to 154 °C | CC(=O)c1c(C)nc2ccccc2c1N
91 | 141 to 143 °C | CCN(CC)c1ccc(NC(=O)CCl)cc1
92 | 65 to 67 °C | O=Cc1ccccc1OCc1ccncc1
93 | 269 to 271 °C | Cc1ccc2ncc(C(=O)O)c(O)c2c1
94 | 147 to 149 °C | CNC(=O)Nc1ccc(N)cc1
95 | 114 to 115 °C | Nc1cccc(C(=O)Nc2cccc(C(F)(F)F)c2)c1
96 | 106 to 108 °C | Nc1cccc(CS(=O)(=O)C2CCCCC2)c1
97 | 99 to 101 °C | CNc1nc2ccccc2o1
98 | 136 to 138 °C | Nc1c(F)cccc1S(N)(=O)=O
99 | 88 to 90 °C | Sc1nnc(-c2ccc(Cl)cc2)o1
100 | 224 to 226 °C | NC(=O)Nc1ccc([N+](=O)[O-])cc1
101 | 199 to 201 °C | O=C(O)c1cnc(Cc2ccccc2)s1
102 | 139 to 141 °C | CC(C)(C)Oc1ccc(C(=O)O)cn1
